Structures can show the parent of a compound that is named as a salt.
Assays:
[1] = per 1 g of substance, crystallization as in U.S. Pat. No. 3,843,668
[2] = per 1 g of substance, crystallization as in EP 644 192

Compound | volume of methanol needed for dissolution of 1 g [1] | volume of ethanol needed for dissolution of 1 g [2]
Clc1ccc2nsnc2c1NC1=NCCN1 [tizanidine base, 5-chloro-4-(2-imidazolin-2-yl-amino)-2,1,3-benzothiadiazole] | at least 37 ml | 
Clc1ccc2nsnc2c1NC1=NCCN1 [tizanidine hydrochloride] |  | at least 43 ml

Source: patent US8487113B2, “Method for the preparation of tizanidine hydrochloride” (Farmak, A.S., priority 2008, dated 2013)
